According to US9233127B2, “Compositions and methods for CXCR4 signaling and umbilical cord blood stem cell engraftment” (University of Virginia Patent Foundation, priority 2012, dated 2016):
Entries after “also recorded” stand apart in the source; their conditions may differ.

Key:
[1] = system: murine BM-derived Sca-1+ cells; experiment: Homing of primed murine Sca-1+ cells into BM of lethally irradiated syngeneic mice; assay type: in vivo; details: Sca-1+ cells preincubated with C3a 30 min, 16 hrs after transplant
From the text: FIG. 16A-B—Panel A: C3a primes homing of murine CFU-GM and CFU-S into BM of lethally irradiated mice. Murine BM-derived Sca-1^+ cells (10^5/mouse) were transplanted into lethally irradiated syngeneic mice. At 16 hrs after transplant, cells were recovered from the femurs of transplanted animals and assayed in secondary cultures for the number of clonogenic CFU-GM (left panel) and, after transplant into secondarily irradiated animals, for the number of day-12 CFU-S (right panel). Data are pooled from three independent experiments using 10 mice each/tested cells (n=30). * p<0.0001. No HSPC cells were recovered from the marrow cavities of control animals (irradiated, not transplanted) Panel B: C3a primes homing of human CB and BM CD34^+ cells into the BM of lethally irradiated NOD/SCID mice. At 16 hrs after transplantation of human CD34^+ cells (10^6/animal), mice were sacrificed and CFU-GM colonies were assayed in methylcellulose cultures. Data are pooled from independent experiments preformed on three different CB- and three different BM samples using 2-4 mice/tested cell sample. p<0.0001.
As final proof of our hypothesis and to test whether the primed cells home better to BM, we primed murine BM-derived Sca-1^+ and human BM- and UCB-derived CD34^+ cells with C3a before their transplantation into lethally irradiated mice. […]

CXCR4 = CXCR4 incorporation into membrane lipid rafts of UCB CD34+ HSC; assay type: cell-based, human; details: short-term (15-30 min) exposure to C3a
Procedure: FIG. 14—Priming effect depends on inclusion of CXCR4 into membrane lipid rafts. […] comprises three rows and three columns of images of micrographs. Lipid raft formation on normal human UCB-derived CD34^+ cells not stimulated (control) or stimulated with C3a or desArgC3a. For visualization of lipid rafts, CD34^+ cells were fixed in 3.7% paraformaldehyde/Ca- and Mg-free PBS for 15 min and permeabilized by Triton X-100 in PBS for 5 min at room temperature (RT). The primary antibodies used for raft analysis are cholera toxin B-subunit conjugated with Fluorescein Isothiocyanate (FITC) (Sigma Aldrich, St. Louis, Mo.) and mouse monoclonal anti-hCXCR4 immunoglobulin (Ig)G (R&D Systems, Minneapolis, Minn.). After rinsing in phosphate-buffered saline (PBS), the sections were incubated with Alexa Fluor 568 goat anti-mouse IgG (Molecular Probes, Eugene, Oreg.) for 45 min.

CD34+ cells = experiment: Transwell chemotaxis of CD34+ cells to an SDF-1 gradient (priming); assay type: cell-based, human
Procedure: FIG. 11A-B—Effect of SLP and its components on chemotaxis of CD34^+ cells. Panel A: Chemotaxis of BM CD34^+ cells towards medium alone (control), SDF-1 low (10 ng/mL) alone, SLP (combined SLP from three patients), SDF-1 low+SLP, and SDF-1 high (300 ng/mL). Data are pooled from quadruplicate samples from three independent experiments. *p<0.00001. Panel B: Chemotaxis of UCB CD34^+ cells to medium alone (control), SDF-1 low (10 ng/mL) alone and SDF-1 low (10 ng/mL)+uPAR (1 μg/mL) or +ICAM (1 μg/mL) or +VCAM (1 μg/mL) or +FN (2 μg/mL), or +FG (4 μg/mL) or +C3a (1 μg/mL). Data are pooled from quadruplicate samples from three independent experiments. * p<0.00001.
Chemotaxis of CD34^+ cells to medium alone (control), C3a (1 μg/ml), C3adesArg (1 μg/ml), SDF-1 low (10 ng/mL) alone, and SDF-1 low (10 ng/mL)+C3a low (0.1 μg/ml) or SDF-1 low (10 ng/mL)+C3a (1 μg/ml) or SDF-1 low (10 ng/mL)+C3adesArg (1 μg/ml). Data are pooled from quadruplicate samples from three independent experiments.* p<0.00001.
FIG. 13A-B—Chemotaxis of cells to an SDF-1 gradient is lipid raft-dependent. Panel A: Chemotaxis of CD34^+ cells to medium alone (control), SDF-1 (300 ng/mL) and SDF-1 (300 ng/mL) after preincubation for 1 hr with Amphotericin (10 μg/mL) or Nystatin (50 μg/mL). Cells were collected after chemotaxis from the lower chambers and plated in a clonogenic assay. The number of CFU-GM and BFU-E colonies formed by harvested cells is shown as a percentage of control values. Data are pooled from quadruplicate samples from three independent experiments. *p<0.0001. Panel B: Chemotaxis of CD34^+ cells towards medium alone (control), SDF-1 low (10 ng/mL) alone, or SDF-1 low with cells exposed to C3a (1 μg/mL). Cells pretreated before chemotaxis for 1 hr with MβCD (2.5 mM) are shown as gray bars. Data are pooled from quadruplicate samples from three independent experiments. * p<0.00001.
HSPCs from the mPB engraft faster compared to HSPCs aspirated from BM. To test the hypothesis that mPB-derived HSPCs are primed in their responses to SDF-1 by molecules present in SLP, we pooled together SLP from three patients and exposed BM or UCB CD34^+ cells to the SLP during chemotaxis to a low (10 ng/mL) dose of SDF-1.
To address this issue further, the formation of rafts in the cells was perturbed by MβCD, which depletes cholesterol from the cell membrane. The CD34^+ cells were pre-incubated with MβCD for 1 hr. Chemotaxis to a low dose of SDF-1 in the presence of C3a (in the upper chambers) was evaluated.

In the case of “C3a: 77 amino acid residue protein derived from the human complement C3a precursor; SEQ ID NO:1”, the “homing of murine CFU-GM and CFU-S into BM” value [1] is reported as “home more efficiently; also recorded: homed better; also recorded: primes homing”, the “CXCR4 incorporation into membrane lipid rafts” value (CXCR4) is reported as “enhances CXCR4 incorporation” and the “chemotaxis of human CD34+ cells to low-threshold doses of SDF-1” value (CD34+ cells; SDF-1 low 10 ng/mL, C3a or C3adesArg 1 μg/ml) is reported as “potentiate (prime) chemotaxis”. For the same substance, the “chemoattraction of CD34+ cells by the C3 cleavage fragment on its own” value (CD34+ cells; no SDF-1, 1 μg/ml) was “neither C3 cleavage fragments chemoattract”.
